Assay results reported in patent US8124655B2, “Use of LR-90 and LR-102 to overcome insulin resistance” (City of Hope, priority 2007, dated 2012).

Assays:
[1] = test system: Zucker diabetic fatty rats (ZDF, fa/fa); experiment: Pancreatic islet immunohistochemistry and PAMS staining (Example 2); assay type: in vivo, rat; settings: FIG. 8
Text: FIG. 7. Immunohistochemical analysis and quantification of islet cells. ZDF GM fa/fa rats and lean control rats were fed with high fat diet for 30 weeks and received either nothing or LR-90 or LR-102 in their drinking water. Pancreatic sections from various groups of animals were stained with anti-insulin antibody or anti-glucagon antibody. A. Representative images with the overlay of the insulin (green) and glucagon (red staining). […] B. Insulin-positive β-cell-to-glucagon-ratio was also measured from these images.
FIG. 8. Periodic acid methenamine silver (PAMS) staining of pancreatic tissues. Sections from cryopreserved pancreas of each group of animals on the study were stained with PAMS and examined under light microscopy.
(§1) LR-90 at 50 mg/L of drinking water was given to a subgroup of ZDF rats after the rats developed spontaneous diabetes at 13 weeks of age. At 40 weeks of age, and before killing the animals, their weight was measured; HbA1c, plasma glucose, insulin, triglycerides, cholesterol, CRP and urinary albumin and creatinine concentrations were measured. After euthanizing all animals, organs such as the kidneys, eyeballs, liver, heart, aortae and pancreas were dissected and subjected to immunohistochemical staining, RT-PCR, Western blotting and microscopy.

[2] = described in U.S. Pat. No. 6,787,566; cited from earlier work
[3] = test system: Zucker diabetic fatty rats (ZDF, fa/fa); experiment: Metabolic data of ZDF rats treated with LR-90 or LR-102 (Example 2); assay type: in vivo, rat; settings: ZDF rats at 40 weeks of age, Mean ± SEM
Protocol: as §1, with “The present Example presents the results of an investigation of the effects of LR-90, an inhibitor of AGE/ALE formation, in male Zucker diabetic fatty rats (ZDF, fa/fa) fed with Purina 5008 diet until 40 weeks of age, and their hetorozygous lean littermates (ZDF fa/+) as non-hyperglycemic controls. LR-90” for “LR-90”

## CC(C)(Oc1ccc(N=Cc2ccc(C=Nc3ccc(OC(C)(C)C(=O)O)cc3)cc2)cc1)C(=O)O [LR-102, 1,4-benzene-bis[4-methyleneaminophenoxyisobutyric acid]]
[1]
  PAMS staining of pancreatic islets: amelioration
[2]
  breaking AGE-protein cross-links: active
[3]; drug in drinking water
  Plasma glucose: 29.8 ± 3.2 mmol/dL
[3]
  Cholesterol: 290 ± 35 mg/dL
  HbA1c: 2.80 ± 0.12%
  Plasma CRP: 0.77 ± 0.05 mg/mL
  Plasma insulin, ELISA: 0.68 ± 0.10 ng/mL
  Plasma insulin, RIA: 0.65 ± 0.10 ng/mL
  Triglycerides: 536 ± 63 mg/dL
  Urinary Albumin: 35.4 ± 15.8 mg/24 h
